Reference: article PMC2099433, “The binding site for neohesperidin dihydrochalcone at the human sweet taste receptor” (BMC Structural Biology, 2007)
Substitutions are numbered along the chain they refer to. Where a SMILES comes first, the peptide text is derived from it.

Key:
[1] = target: T1, hTAS1R2 + hTAS1R3 S620A^2.57 (Homo sapiens, UniProt Q7RTX0+Q8TE23, S620A); assay: Calcium response (FLIPR), hTAS1R3 mutant coexpressed with hTAS1R2; assay type: cell-based; settings: variant S620A^2.57; for Emax: read-out: maximal signal (% of wt)
T1 construct: expressed in transfected cells; host or cells: HEK293T cells stably expressing G16Gust44
T1 sequence (Q8TE23 20-839): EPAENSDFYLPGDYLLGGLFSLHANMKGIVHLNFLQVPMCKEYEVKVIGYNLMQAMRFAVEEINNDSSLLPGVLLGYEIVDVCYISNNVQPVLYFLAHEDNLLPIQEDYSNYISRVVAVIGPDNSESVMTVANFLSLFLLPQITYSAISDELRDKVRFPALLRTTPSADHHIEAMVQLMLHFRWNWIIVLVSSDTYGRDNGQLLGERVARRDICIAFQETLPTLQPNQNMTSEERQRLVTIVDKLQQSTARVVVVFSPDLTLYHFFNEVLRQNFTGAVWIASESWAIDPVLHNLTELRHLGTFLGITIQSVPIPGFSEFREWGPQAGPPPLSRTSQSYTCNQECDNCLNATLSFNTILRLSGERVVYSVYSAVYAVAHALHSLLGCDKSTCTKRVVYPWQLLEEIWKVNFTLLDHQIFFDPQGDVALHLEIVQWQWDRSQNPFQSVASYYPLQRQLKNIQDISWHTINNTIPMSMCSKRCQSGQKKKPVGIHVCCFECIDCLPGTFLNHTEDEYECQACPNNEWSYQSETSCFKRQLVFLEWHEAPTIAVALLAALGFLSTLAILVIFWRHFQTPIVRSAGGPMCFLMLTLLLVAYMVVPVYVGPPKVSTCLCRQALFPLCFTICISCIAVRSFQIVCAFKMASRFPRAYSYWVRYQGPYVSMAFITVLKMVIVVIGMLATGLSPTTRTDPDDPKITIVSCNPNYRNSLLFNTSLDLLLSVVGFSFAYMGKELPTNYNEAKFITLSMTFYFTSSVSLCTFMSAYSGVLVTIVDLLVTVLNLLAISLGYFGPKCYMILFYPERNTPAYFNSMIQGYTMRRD
T1 sequence (Q7RTX0 21-852 S620A): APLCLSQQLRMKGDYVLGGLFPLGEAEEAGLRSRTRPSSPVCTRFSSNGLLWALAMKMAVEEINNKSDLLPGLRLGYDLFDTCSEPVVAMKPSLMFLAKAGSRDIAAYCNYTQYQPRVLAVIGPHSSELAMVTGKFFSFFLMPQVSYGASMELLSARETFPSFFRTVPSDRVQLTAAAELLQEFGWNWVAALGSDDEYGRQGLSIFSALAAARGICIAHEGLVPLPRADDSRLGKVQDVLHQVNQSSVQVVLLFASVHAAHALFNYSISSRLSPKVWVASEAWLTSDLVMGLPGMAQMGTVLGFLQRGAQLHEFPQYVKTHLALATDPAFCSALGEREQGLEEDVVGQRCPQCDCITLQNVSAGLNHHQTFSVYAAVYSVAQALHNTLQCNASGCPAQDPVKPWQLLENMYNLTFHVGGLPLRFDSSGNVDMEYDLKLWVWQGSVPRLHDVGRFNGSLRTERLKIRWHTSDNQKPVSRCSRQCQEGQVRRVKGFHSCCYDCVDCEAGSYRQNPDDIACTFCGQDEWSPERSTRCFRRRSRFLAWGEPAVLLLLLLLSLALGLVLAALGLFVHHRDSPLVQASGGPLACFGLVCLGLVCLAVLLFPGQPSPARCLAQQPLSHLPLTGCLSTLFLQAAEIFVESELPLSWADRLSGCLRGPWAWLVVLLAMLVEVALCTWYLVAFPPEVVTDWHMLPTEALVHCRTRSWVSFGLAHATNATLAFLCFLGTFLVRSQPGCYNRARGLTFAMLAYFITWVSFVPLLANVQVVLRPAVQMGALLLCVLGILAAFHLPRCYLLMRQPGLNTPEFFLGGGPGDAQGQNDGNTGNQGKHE
In short: (§1)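 Calcium mobilization was measured by FLIPR in Fluo4-AM-loaded HEK293T cells coexpressing G16Gust44 with the tagged receptor pair. Signals had mock responses removed and were given as ΔF/F.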

[2] = target: T2, hTAS1R2 + hTAS1R3 Y699F^4.60 (Homo sapiens, UniProt Q7RTX0+Q8TE23, Y699F); assay: as above; assay type: cell-based; settings: variant Y699F^4.60; for Emax: read-out: maximal signal (% of wt)
T2 construct: expressed in transfected cells; host or cells: HEK293T cells stably expressing G16Gust44
T2 sequence (Q7RTX0 21-852 Y699F): T1 sequence (Q7RTX0 21-852 S620A) with A600S, Y679F
T2 sequence (Q8TE23 20-839): T1 sequence (Q8TE23 20-839)
In short: as §1

EC50 [1] [µM] | Emax [1] [%] | EC50 [2] [µM] | Emax [2] [%] | Compound
1300 ± 500 | 55 ± 80 | 600 ± 400 | 72 ± 17 | COc1ccc(CCC(=O)c2c(O)cc(O[C@@H]3O[C@H](CO)[C@@H](O)[C@H](O)[C@H]3O[C@@H]3O[C@@H](C)[C@H](O)[C@@H](O)[C@H]3O)cc2O)cc1O [NHDC, neohesperidin dihydrochalcone]
1200 ± 300 | 64 ± 4 | 1200 ± 300 | 56 ± 2 | COC(=O)[C@H](Cc1ccccc1)NC(=O)[C@@H](N)CC(=O)O [aspartame] (HELM PEPTIDE1{D.F.[CO[*:1]]}$$$$V2.0)
